The nature of the data set: RP, Waters ACQUITY UPLC BEH C18, 100 × 2.1 mm, 1.7 µm, 0.3 mL/min, estimated dead time 0.73 min; A: water + 0.1% formic acid, pH 3; B: methanol + 0.1% formic acid, pH 3; gradient (min/%B) 0/10 14/90 16/90 18/10. To be noted: stereoisomer not certain.
For `O=C(NC(CO)C(O)c1ccc([N+](=O)[O-])cc1)C(Cl)Cl` (stereo not given) [Chloramphenicol], the LC retention time is 5.3 min. The figure for `Nc1ccc(S(=O)(=O)Nc2ncccn2)cc1` [Sulfadiazine] is 2.09 min; for `CC(C)=NOCCOC(=O)C(C)Oc1ccc(Oc2cnc3cc(Cl)ccc3n2)cc1` (stereo not given) [Propaquizafop] it is 12.9 min; for `CNC(=O)CSP(=S)(OC)OC` [Dimethoate] it is 5.37 min. For `N#CN=C1SCCN1Cc1ccc(Cl)nc1` [Thiacloprid] the value was 6.28 min; for `Cc1cc2c(s1)Nc1ccccc1N=C2N1CCN(C)CC1` [Olanzapine], 3.3 min.

With `CNC(=O)Oc1cc(C)c(SC)c(C)c1` [Methiocarb], the LC retention time was 8.89 min. As to `COC1CC(OC2CC(C3OC(C)(O)C(C)CC3C)OC2C2(C)CCC(C3(C)CCC4(CC(O)C(C)C(C(C)C5OC(O)(CC(=O)O)C(C)C(OC)C5OC)O4)O3)O2)OC(C)C1OC` (stereo not given) [Maduramicine], the LC retention time was 15.7 min. For `C[Si](Cn1cncn1)(c1ccc(F)cc1)c1ccc(F)cc1` [Flusilazole] the value was 11.4 min. For `CN(C)C(=O)Nc1ccc(Cl)c(Cl)c1` [Diuron] the value was 9.72 min.

Consider `CN1CCCC1c1cccnc1` (stereo not given) [Nicotine], for which the LC retention time is 1.12 min. For `CCS(=O)(=O)Cc1ccccc1OC(=O)NC` [Ethiofencarb sulfone] the value was 4.07 min; for `CCSCCSP(=O)(OC)OC` [Demeton-S-methyl], 7.56 min.

With `CNC(=O)Oc1ccccc1OC(C)C` [Propoxur], the LC retention time was 7.36 min. In the case of `CC(C)(C)C(O)C(Cc1ccc(Cl)cc1)n1cncn1` (stereo not given) [Paclobutrazol], the LC retention time was 10.8 min. For `COP(=S)(OC)Oc1ccc([N+](=O)[O-])c(C)c1` [Fenitrothion] the value was 10.5 min; for `O=C(Nc1ccccc1)Nc1cnns1` [Thidiazuron], 7.36 min. For `Nc1ccccc1O` [2-Aminophenol] the value was 1.44 min.

Take `CON(C)C(=O)Nc1ccc(Cl)c(Cl)c1` [Linuron]: the LC retention time is 10.3 min. For `CCOc1cc(Oc2ccc(C(F)(F)F)cc2Cl)ccc1[N+](=O)[O-]` [Oxyfluorfen] the value was 13.8 min. For `CCN(CC)C(=O)SCc1ccc(Cl)cc1` [Thiobencarb] the value was 12.9 min; for `CCC(C)C(=O)OC1CC(O)C=C2C=CC(C)C(CCC(O)CC(O)CC(=O)O)C21` (stereo not given) [Pravastatin], 7.96 min.

As to `CCc1ccc(C(=O)NN(C(=O)c2cc(C)cc(C)c2)C(C)(C)C)cc1` [Tebufenozide], the LC retention time was 11.5 min. The figure for `CCOP(=S)(OCC)Oc1cnc2ccccc2n1` [Quinalphos] is 11.3 min; for `CCS(=O)Cc1ccccc1OC(=O)NC` (stereo not given) [Ethiofencarb sulfoxide] it is 4.6 min. With `CNC(=O)ON=CC(C)(C)SC` [Aldicarb], the LC retention time is 6.2 min. For `c1coc(-c2nc3ccccc3[nH]2)c1` [Fuberidazole] the value was 6.61 min. In the case of `CON(C)C(=O)Nc1ccc(Br)cc1` [Metobromuron], the LC retention time is 8.53 min. The figure for `COC(=O)c1ccccc1S(=O)(=O)NC(=O)Nc1nc(C)nc(OC)n1` [Metsulfuron methyl] is 5 min; for `CC(C)(C)Nc1nc(N)[nH]c(=O)n1` [Deethyl-2-hydroxy-terbuthylazine] it is 3.24 min. For `COP(=S)(OC)Oc1nc(Cl)c(Cl)cc1Cl` [Chlorpyriphos-methyl] the value was 12.1 min; for `CCOC1Oc2ccc(OS(C)(=O)=O)cc2C1(C)C` (stereo not given) [Ethofumesate], 9.89 min. For `COc1ccnc(CS(=O)c2nc3ccc(OC(F)F)cc3[nH]2)c1OC` (stereo not given) [Pantoprazol] the value was 7.67 min; for `CCCN(CCC)C(=O)SCc1ccccc1` [Prosulfocarb], 12.6 min. Consider `CC(COc1ccc(Oc2ccccc2)cc1)Oc1ccccn1` (stereo not given) [Pyriproxyfen], for which the LC retention time is 14 min.

As for `CCNc1nc(N)nc(Cl)n1` [Desisopropylatrazine], the LC retention time is 4.38 min. The figure for `COC1CC(OC2C(C)OC(OC3C(C)=CCC4CC(CC5(C=CC(C)C(C6CCCCC6)O5)O4)OC(=O)C4C=C(C)C(O)C5OCC(=CC=CC3C)C45O)CC2OC)OC(C)C1O` (stereo not given) [Doramectine] is 15.7 min; for `CC(C)(CO)NCC(O)c1cc(Cl)c(N)c(Cl)c1` (stereo not given) [Hydroxymethyl clenbuterol] it is 4.17 min. For `Cc1cnc2c(C(=O)O)c(Cl)ccc2c1` [Quinmerac], the LC retention time was 3.44 min. For `COP(=O)(OC)OC=C(Cl)Cl` [Dichlorvos] the value was 7.31 min; for `Nc1ccc(S(=O)(=O)c2ccc(N)cc2)cc1` [Dapsone], 3.17 min.

For `CS(=O)(=O)c1ccc(C(=O)C2C(=O)CCCC2=O)c([N+](=O)[O-])c1` [Mesotrione], the LC retention time was 5.53 min. For `CNC(=O)Oc1cccc2c1OC(C)(C)C2O` (stereo not given) [Carbofuran-3-OH] the value was 4.08 min; for `CCCCCc1cc(O)c2c(c1)OC(C)(C)C1CC(O)C(C)=CC21` (stereo not given) [OH-THC], 13.9 min; for `CCNP(=S)(OC)OC(C)=CC(=O)OC(C)C` (stereo not given) [Propetamphos], 10.6 min.

Take `CC(C)(C)NCC(O)c1ccc(N)c(C#N)c1` (stereo not given) [Cimbuterol]: the LC retention time is 2.78 min.

For the compound `COCC(=O)N(c1c(C)cccc1C)C(C)C(=O)OC` (stereo not given) [Metalaxyl], the LC retention time was 9.73 min. For `COC(=O)C(C)Oc1ccc(Oc2cnc3cc(Cl)ccc3n2)cc1` (stereo not given) [Quizalofop methyl] the value was 12.1 min; for `CC(C)=CC1C(C(=O)OCN2C(=O)C3=C(CCCC3)C2=O)C1(C)C` (stereo not given) [Tetramethrin], 12.8 min; for `COc1cc(OC)nc(NC(=O)NS(=O)(=O)c2ncccc2C(F)(F)F)n1` [Flazasulfuron], 7.14 min. For `CC(C)Oc1cc(-n2nc(C(C)(C)C)oc2=O)c(Cl)cc1Cl` [Oxadiazon] the value was 13 min; for `Cc1ccccc1C(=O)Nc1cccc(OC(C)C)c1` [Mepronil], 10.4 min; for `CC1=C(C(=O)O)N2C(=O)C(NC(=O)C(N)c3ccccc3)C2SC1` (stereo not given) [Cefalexin], 3.25 min.

Take `N#CC(CCc1ccc(Cl)cc1)(Cn1cncn1)c1ccccc1` (stereo not given) [Fenbuconazole]: the LC retention time was 11.1 min.

Turning to `O=C(Nc1ccccc1)Nc1ccnc(Cl)c1` [Forchlorfenuron], the LC retention time is 8.95 min. Take `CC1(C)C(C=C(Br)Br)C1C(=O)OC(C#N)c1cccc(Oc2ccccc2)c1` (stereo not given) [Deltamethrin]: the LC retention time is 14 min.

`CON(C)C(=O)Nc1ccc(Cl)cc1` [Monolinuron]: the LC retention time is 8.07 min. In the case of `CC1CCCC(=O)CCCC=Cc2cc(O)cc(O)c2C(=O)O1` (stereo not given) [Zearalenone], the LC retention time is 10.5 min.

Take `CCNc1nc(Cl)nc(NCC)n1` [Simazine]: the LC retention time was 7.91 min. For `CC12C=CC(=O)C=C1CCC1C3CC(O)C(O)(C(=O)CO)C3(C)CC(O)C12F` (stereo not given) [Triamcinolone] the value was 6.95 min. The figure for `CC1(C)OC2CC3C4CCC5=CC(=O)C=CC5(C)C4(F)C(O)CC3(C)C2(C(=O)CO)O1` (stereo not given) [Triamcinolone acetonide] is 9.42 min; for `COP(=S)(OC)SCn1nnc2ccccc2c1=O` [Azinphos-methyl] it is 10.1 min. For `CCCCOC(=O)N(C)SN(C)C(=O)Oc1cccc2c1OC(C)(C)C2` [Furathiocarb] the value was 12.8 min. `CC(CCc1ccc(O)cc1)NCC(O)c1ccc(O)cc1` (stereo not given) [Ractopamine]: the LC retention time was 4.5 min. The figure for `NC(=NN=Cc1ccc(Cl)cc1)NN=Cc1ccc(Cl)cc1` [Robenidine] is 10.9 min. For `CCOc1cc(C(C)(C)C)ccc1C1COC(c2c(F)cccc2F)=N1` (stereo not given) [Etoxazole], the LC retention time is 13.5 min. Regarding `COC(=O)c1ccccc1CS(=O)(=O)NC(=O)Nc1nc(OC)cc(OC)n1` [Bensulfuron methyl], the LC retention time was 9.29 min. For `Cc1nn(C)c(Oc2ccccc2)c1C=NOCc1ccc(C(=O)OC(C)(C)C)cc1` [Fenpyroximate] the value was 13.7 min; for `Nc1ccc(Cl)c(Cl)c1` [3.4-dichloroaniline], 7.98 min. Take `N#Cc1c[nH]cc1-c1cccc2c1OC(F)(F)O2` [Fludioxonil]: the LC retention time is 10.1 min. The figure for `C=CC=CCC1=C(C)C(OC(=O)C2C(C=C(C)C)C2(C)C)CC1=O` (stereo not given) [Pyrethrin I] is 13.7 min; for `COP(=S)(OC)SCC(=O)N(c1ccc(Cl)cc1)C(C)C` [Anilofos] it is 11.7 min.

Take `CCC(C)n1c(=O)[nH]c(C)c(Br)c1=O` (stereo not given) [Bromacil]: the LC retention time was 7.96 min. The figure for `O=C1OC(CN2CCOCC2)CN1N=Cc1ccc([N+](=O)[O-])o1` (stereo not given) [Furaltadone] is 2.64 min; for `Cc1c(Cl)cccc1Nc1ccccc1C(=O)O` [Tolfenamic acid] it is 11 min; for `O=C(O)c1cn(C2CC2)c2cc(N3CCNCC3)c(F)cc2c1=O` [Ciprofloxacin] it is 3.93 min.

For `CNC(=O)ON=CC(C)(C)S(C)=O` (stereo not given) [Aldicarb sulfoxide], the LC retention time was 2.54 min. For `CCNC(C)Cc1ccc2c(c1)OCO2` (stereo not given) [MDEA] the value was 4.27 min; for `Cc1nnc(-c2ccccc2)c(=O)n1N` [Metamitron], 4.51 min.

Consider `O=c1[nH]c2c(c(=O)n1C1CCCCC1)CCC2` [Lenacil], for which the LC retention time was 8.9 min.
